What was measured:
Type in all cases: cell-based
human TLR4 = target: T1, human TLR4 (Homo sapiens, UniProt O00206+Q9Y6Y9); assay: NF-κB activation (secreted alkaline phosphatase reporter) in HEK293 cells expressing human TLR4; conditions: HEK293/hTLR4 cell line; polynucleotide final concentration 10 μg/mL; 16-20 hours
T1 construct: host or cells: HEK293
Method: (§1) Toll-like receptors (TLR) are known to interact with a number of natural and synthetic molecules that can function as immune adjuvants. Examples of these molecules are Poly (I:C) polynucleotides, lipopolysaccharide and CpG-containing polynucleotides. The interaction of non-DNA base-containing polynucleotides (SEQ ID NOs: 1-3) to interact with TLR and induce down-stream signaling was tested by assessing NF-κB activation in HEK293 cells expressing human TLR2, 3, 4, 5, 7, 8 and 9. TLR engagement was determined by measurement of secreted alkaline phosphatase, under the control of a reporter inducible by NF-κB. Appropriate positive controls were used for each TLR. The non-DNA base-containing polynucleotides were dissolved in sterile water at a concentration of 100 μg/mL, and used at a final concentration of 10 μg/mL. HEK293 cells containing the appropriate TLR and NF-κB reporting system (InvivoGen, San Diego, Calif., USA) were placed in wells of 96 well plates (25,000-50,000 cells, in a final volume of 200 μL medium designed for the detection of NF-κB induced secreted alkaline phosphatase expression), and incubated with non-DNA base-containing polynucleotides or positive controls for 16-20 hours. TLR activating activity was determined by measurement of absorbance at 650 nm wavelength using a Coulter AD340C absorbance detector. The results shown are expressed as Optical Density (OD).

human TLR5 = target: T2, human TLR5 (Homo sapiens, UniProt O60602); assay: NF-κB activation (secreted alkaline phosphatase reporter) in HEK293 cells expressing human TLR5; conditions: HEK293/hTLR5 cell line; polynucleotide final concentration 10 μg/mL; 16-20 hours
T2 construct: host or cells: HEK293
T2 sequence (O60602 21-858): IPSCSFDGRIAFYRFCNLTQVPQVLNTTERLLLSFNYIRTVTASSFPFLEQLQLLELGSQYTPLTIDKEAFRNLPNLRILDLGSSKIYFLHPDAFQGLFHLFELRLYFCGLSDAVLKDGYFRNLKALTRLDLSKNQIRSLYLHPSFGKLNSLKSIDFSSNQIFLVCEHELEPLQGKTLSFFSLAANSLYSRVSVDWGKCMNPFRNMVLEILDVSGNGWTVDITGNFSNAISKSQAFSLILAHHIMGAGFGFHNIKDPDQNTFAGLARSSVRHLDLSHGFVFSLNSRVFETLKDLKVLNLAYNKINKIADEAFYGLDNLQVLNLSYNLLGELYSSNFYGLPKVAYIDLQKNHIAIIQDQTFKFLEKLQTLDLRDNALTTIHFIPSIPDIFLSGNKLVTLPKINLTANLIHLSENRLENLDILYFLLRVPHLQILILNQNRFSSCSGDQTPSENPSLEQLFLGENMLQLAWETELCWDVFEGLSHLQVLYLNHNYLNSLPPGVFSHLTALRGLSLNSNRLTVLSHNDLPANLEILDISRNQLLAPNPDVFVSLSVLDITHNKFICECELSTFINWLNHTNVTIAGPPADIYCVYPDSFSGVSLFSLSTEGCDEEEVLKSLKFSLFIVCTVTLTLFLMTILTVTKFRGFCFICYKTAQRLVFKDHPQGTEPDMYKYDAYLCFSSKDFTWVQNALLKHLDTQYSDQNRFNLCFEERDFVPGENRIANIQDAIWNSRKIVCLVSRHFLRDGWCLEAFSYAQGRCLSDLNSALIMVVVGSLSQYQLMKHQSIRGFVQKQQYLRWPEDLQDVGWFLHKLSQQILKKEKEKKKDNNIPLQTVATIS
Method: as §1

human TLR7 = target: T3, human TLR7 (Homo sapiens, UniProt Q9NYK1); assay: NF-κB activation (secreted alkaline phosphatase reporter) in HEK293 cells expressing human TLR7; conditions: HEK293/TLR7 cell line; polynucleotide final concentration 10 μg/mL; 16-20 hours
T3 construct: host or cells: HEK293
T3 sequence (Q9NYK1 27-1049): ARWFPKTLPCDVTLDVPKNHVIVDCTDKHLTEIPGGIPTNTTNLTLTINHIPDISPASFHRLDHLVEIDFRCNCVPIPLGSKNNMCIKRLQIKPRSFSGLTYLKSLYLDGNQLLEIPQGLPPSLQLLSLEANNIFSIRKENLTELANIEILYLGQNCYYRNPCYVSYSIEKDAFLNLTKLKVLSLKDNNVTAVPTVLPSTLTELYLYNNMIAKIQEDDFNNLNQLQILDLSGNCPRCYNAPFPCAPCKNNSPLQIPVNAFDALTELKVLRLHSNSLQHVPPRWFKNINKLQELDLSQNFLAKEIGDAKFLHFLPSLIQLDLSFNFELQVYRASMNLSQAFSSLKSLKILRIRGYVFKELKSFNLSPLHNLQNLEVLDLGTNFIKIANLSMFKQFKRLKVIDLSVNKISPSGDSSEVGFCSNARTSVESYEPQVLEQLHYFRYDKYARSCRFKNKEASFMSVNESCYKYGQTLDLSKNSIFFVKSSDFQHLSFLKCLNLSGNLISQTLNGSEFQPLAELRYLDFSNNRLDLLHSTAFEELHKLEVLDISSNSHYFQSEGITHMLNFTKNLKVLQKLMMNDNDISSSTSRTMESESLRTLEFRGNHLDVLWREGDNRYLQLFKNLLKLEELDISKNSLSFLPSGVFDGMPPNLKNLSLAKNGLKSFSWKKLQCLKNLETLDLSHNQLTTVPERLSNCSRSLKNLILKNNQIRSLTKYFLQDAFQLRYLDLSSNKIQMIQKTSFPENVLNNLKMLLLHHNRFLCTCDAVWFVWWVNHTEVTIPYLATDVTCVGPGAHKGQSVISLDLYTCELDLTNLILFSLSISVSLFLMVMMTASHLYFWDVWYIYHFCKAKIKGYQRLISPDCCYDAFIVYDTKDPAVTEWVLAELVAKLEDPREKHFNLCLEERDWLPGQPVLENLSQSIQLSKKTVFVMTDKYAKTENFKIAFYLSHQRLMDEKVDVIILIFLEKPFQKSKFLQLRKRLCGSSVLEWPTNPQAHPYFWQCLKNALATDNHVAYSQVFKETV
Method: as §1, with “The interaction of non-DNA base-containing polynucleotides (SEQ ID NOs: 1-3) to interact with TLR and induce down-stream signaling was tested by assessing NF-κB activation in HEK293 cells expressing human TLR2, 3, 4, 5, 7, 8 and 9.” left out

human PBMC = assay: Induction of cytokines from human PBMC (ELISA cytokine capture assay); conditions: PBMC of 3 healthy adults, 48 h; increase two-fold that of background control; SEQ ID NOs 1-3 100 μg/mL, CpG 2006 and MCC 1-100 μg/mL, LPS 10 μg/mL
Source text: A number of immune adjuvants are known to be capable of eliciting cytokines from human PBMC cells. Examples of such adjuvants are alum, lipopolysaccharide, monophosphoryl lipid A, CpG-containing polynucleotides and non-CpG-containing ODN's, as well as mycobacterial cell wall-DNA complex (MCC). […] PBMC were isolated from whole blood using standard Ficoll-Paque (GE Healthcare Life Sciences, Baie d'Urfé, QC, Canada) gradient centrifugation, and placed in tissue culture plates at a concentration of 10^6 cells/mL (total volume: 1 mL in RPMI 1640 medium containing 10% heat-inactivated FBS, both from Wisent, St-Bruno, QC, Canada) and 50 μg/mL gentamycin sulfate (Sigma-Aldrich Canada, Oakville, ON, Canada). SEQ ID NOs: 1, 2 or 3 were added to give a final concentration of 100 μg/mL, and the cells were cultivated for 48 h. Cytokines (IL-1β, IL-2, IL-6, IL-10 and IL-12p40) in the supernatant at the end of incubation were determined by ELISA using a cytokine capture assay process (Biosource, Camarillo, Calif.). SEQ ID NO: 32 CpG 2006 ODN (1-100 μg/mL, 5′-[…]-3′, […]), MCC (1-100 μg/mL) and LPS (10 μg/mL) were used as positive controls.

T1 sequence (Q9Y6Y9 17-160): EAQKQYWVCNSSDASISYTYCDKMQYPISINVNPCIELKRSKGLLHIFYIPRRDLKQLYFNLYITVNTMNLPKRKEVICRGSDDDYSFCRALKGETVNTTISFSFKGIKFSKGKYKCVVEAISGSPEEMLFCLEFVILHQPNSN
T1 sequence (O00206 24-839): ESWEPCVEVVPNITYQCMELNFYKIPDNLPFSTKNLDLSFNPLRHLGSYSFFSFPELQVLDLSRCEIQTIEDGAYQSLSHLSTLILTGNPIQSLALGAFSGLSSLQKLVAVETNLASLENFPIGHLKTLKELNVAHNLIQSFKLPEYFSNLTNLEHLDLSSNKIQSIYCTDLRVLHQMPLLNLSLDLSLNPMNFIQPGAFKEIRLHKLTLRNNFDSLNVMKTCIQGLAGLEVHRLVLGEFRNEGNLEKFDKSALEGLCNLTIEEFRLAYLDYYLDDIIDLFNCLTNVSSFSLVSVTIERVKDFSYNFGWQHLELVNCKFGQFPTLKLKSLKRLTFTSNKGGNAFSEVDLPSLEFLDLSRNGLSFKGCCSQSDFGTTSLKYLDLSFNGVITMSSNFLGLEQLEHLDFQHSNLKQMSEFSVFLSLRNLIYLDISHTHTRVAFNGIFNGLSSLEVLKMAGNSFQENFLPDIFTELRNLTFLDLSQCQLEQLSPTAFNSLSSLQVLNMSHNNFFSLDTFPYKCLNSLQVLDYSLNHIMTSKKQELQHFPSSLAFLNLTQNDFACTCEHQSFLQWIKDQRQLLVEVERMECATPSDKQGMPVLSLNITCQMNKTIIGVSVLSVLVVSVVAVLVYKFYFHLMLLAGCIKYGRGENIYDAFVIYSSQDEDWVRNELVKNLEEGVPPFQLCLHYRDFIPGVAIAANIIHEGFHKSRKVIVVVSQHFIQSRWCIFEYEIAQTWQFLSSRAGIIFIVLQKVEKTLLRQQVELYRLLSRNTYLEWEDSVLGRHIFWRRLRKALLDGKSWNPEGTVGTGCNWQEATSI

Substance	TLR activation, Optical Density at 650 nm, hTLR4 (human TLR4)	TLR activation, Optical Density at 650 nm, hTLR5 (human TLR5)	TLR activation, Optical Density at 650 nm, hHTR7 (human TLR7)	Number of individuals responding, IL-1β (human PBMC)	Number of individuals responding, IL-2 (human PBMC)	Number of individuals responding, IL-6 (human PBMC)	Number of individuals responding, IL-10 (human PBMC)	Number of individuals responding, IL-12p40 (human PBMC)
IIGTII [SEQ ID NO: 3]	0.050	0.155	0.093	0/3	0/3	3/3	0/3	0/3
UUGTUU [SEQ ID NO: 2]	0.052	0.143	0.090	0/3	0/3	1/3	0/3	3/3
NebGGTGNeb (DNA NGGTGN; Nebularine at both ends, sugar and linkages not given here, further chemistry not given here) [SEQ ID NO: 1, 5′-OH, 3′-OH non-DNA base-containing polynucleotide]	0.050	0.158	0.097	3/3	0/3	3/3	0/3	3/3
